This is an account of results in patent US10472315B2, “Inhibitors of methionine aminopeptidases and methods of treating disorders” (THE JOHNS HOPKINS UNIVERSITY, priority 2009, dated 2019).

The test deals with M. tuberculosis CDC1551 wild-type, control and MtMetAP1a/MtMetAP1c knock-in strains. It is filed as cell-based.

`O=C1C(Cl)=C(Cl)C(=O)c2ccccc21` [Compound 4, 2,3-dichloro-1,4-naphthoquinone]: the “growth of MtMetAP1a and MtMetAP1c knock-in strains” value is “gained resistance”; the “growth of wild-type and control M. tuberculosis strains” value is “inhibited”.
